Numbered stars: 1 amine (or outer) side, 2 acyl side, 3 side chain; on linkers, the order of the positions; unused ones are H or OH. Square brackets hold non-standard residues; d marks the D form. Peptide text beside a SMILES is read from it. Cha = N[C@@H](CC1CCCCC1)C(=O)O; Suc = O=C(CCC(=O)[*:2])[*:1]; Ava = NCCCCC(=O)O
Tested on: platelet
Experiment: Dog antiplatelet activity
Format: cell-based
Conditions: read-out: Dog Antiplatelet IC₅₀

Row | Compound | IC50
1 | CC[C@H](C)[C@H](NC(=O)[C@@H]1CCCN1C(=O)[C@H](CCC(=O)O)NC(=O)[C@H](Cc1ccc(O)cc1)NC(=O)CCC(=O)O)C(=O)N1CCC[C@H]1C(=O)N[C@@H](CCCNC(=N)N)C(=O)NCC(=O)N[C@@H](CC(=O)O)C(=O)N[C@@H](Cc1ccccc1)C(=O)N[C@H](CCC(=O)O)C(=O)O [Example 4] (Suc-YEPIPRGDF[dE]-OH) | 42 µM
2 | CC[C@H](C)[C@H](NC(=O)[C@@H]1CCCN1C(=O)[C@H](CCC(=O)O)NC(=O)[C@H](Cc1ccc(OC)cc1)NC(=O)[C@H](CC(=O)O)NC(=O)CNC(=O)CCCCNC(=N)N)C(=O)N1CCC[C@H]1C(=O)N[C@@H](CCC(=O)O)C(=O)N[C@@H](CCC(=O)O)C(=O)N[C@@H](C)C(=O)N[C@@H](CC1CCCCC1)C(=O)N[C@H](CCC(=O)O)C(=O)O [Example 5, 5GP-Gly-Asp-Tyr(OCH₃)-Glu-Pro-Ile-Pro-Glu-Glu-Ala-Cha-glu-OH] | 10 µM
3 | CC[C@H](C)[C@H](NC(=O)[C@@H]1CCCN1C(=O)[C@H](CCC(=O)O)NC(=O)[C@H](Cc1ccc(OC)cc1)NC(=O)[C@H](CC(=O)O)NC(=O)CNC(=O)CCCCN)C(=O)N1CCC[C@H]1C(=O)N[C@@H](CCC(=O)O)C(=O)N[C@@H](CCC(=O)O)C(=O)N[C@@H](C)C(=O)N[C@@H](CC1CCCCC1)C(=O)N[C@H](CCC(=O)O)C(=O)O [Example 3, 5AP-Gly-Asp-Tyr(OCH₃)-Glu-Pro-Ile-Pro-Glu-Glu-Ala-Cha-glu-OH] | 280 µM
4 | CC[C@H](C)[C@H](NC(=O)[C@@H]1CCCN1C(=O)[C@H](CCC(=O)O)NC(=O)[C@H](Cc1c[nH]c2ccccc12)NC(=O)[C@H](CC(=O)O)NC(=O)CNC(=O)CCCCNC(=N)N)C(=O)N1CCC[C@H]1C(=O)N[C@@H](CCC(=O)O)C(=O)N[C@@H](CCC(=O)O)C(=O)N[C@@H](C)C(=O)N[C@@H](CC1CCCCC1)C(=O)N[C@H](CCC(=O)O)C(=O)O [Example 1] | 6 µM
5 | CC[C@H](C)[C@H](NC(=O)[C@H](CCC(=O)O)NC(=O)[C@H](CCC(=O)O)NC(=O)[C@H](Cc1c[nH]c2ccccc12)NC(=O)[C@H](CC(=O)O)NC(=O)CNC(=O)CCCCN)C(=O)N1CCC[C@H]1C(=O)N[C@@H](CCC(=O)O)C(=O)N[C@@H](CCC(=O)O)C(=O)N[C@@H](C)C(=O)N[C@@H](CC1CCCCC1)C(=O)N[C@H](CCC(=O)O)C(=O)O [Example 2] (H-[Ava]GDWEEIPEEA[Cha][dE]-OH) | 250 µM
